Experiment [1] relates to Ub-G76V. Conditions: read-out: Potency of inhibition: EC50 on Ub-G76V in cell culture; cited from earlier work.
The target of experiment [2] is VCP ATPase (Homo sapiens, UniProt P55072). The settings on record: read-out: Potency of inhibition: IC50 on ATPase in vitro; cited from earlier work.
In experiment [3] the test system is control motor neurons. Description: RBP localisation by immunofluorescence in control iPSC-derived motor neurons. The class given is cell-based, human. Conditions: vs untreated. As for the experimental part: (§1) Cell culture and motor neuron differentiation. IPSCs were maintained with Essential 8 Medium media (Life Technologies) on Geltrex (Life Technologies), and passaged using EDTA (Life Technologies, 0.5 mM). IPSC cultures were kept at 37° C. and 5% carbon dioxide. IPSCs underwent differentiation into spinal cord motor neurons as described in Hall et al, 2017 [12].
(§2) IPSC were plated to 100% confluency and then differentiated to the neuroepithelium in medium consisting of DMEM/F12 Glutamax, Neurobasal, L-Glutamine, N2 supplement, nonessential amino acids, B27 supplement, β-mercaptoethanol (all from Life Technologies) and insulin (Sigma). The cells underwent a sequential treatment with small molecules, with day 0-7: 1 μM Dorsomorphin (Millipore), 2 μM SB431542 (Tocris Bioscience), and 3.3 μM CHIR99021 (Miltenyi Biotec), day 7-14: 0.5 μM retinoic acid (Sigma) and 1 μM Purmorphamine (Sigma), day 14-18: 0.1 μM Purmorphamine. Following 18 days of neural conversion and patterning, neural precursors were terminally differentiated in 0.1 μM Compound E (Enzo Life Sciences).
(§3) […] neuroepithelial layer was enzymatically dissociated using dispase (GIBCO, 1 mg ml−1). The neural precursors were dissociated with Accutase (Life Technologies) for final plating onto a 96 well plate (Falcon) coated with polyethylenimine (PEI) (2.2 mg/ml in 0.1M of sodium borate (Sigma) and Geltrex. Following 6 days of terminal differentiation, cells were fixed in 4% paraformaldehyde for immunolabeling.
(§4) Inhibitor treatment. Motor neuron cultures were treated with 1 μM of ML240 (Sigma; SML1071; CAS:1346527-98-7) for 2 hours, 5 μM of DBeQ for 3 hours or 1 μM of CB-5083 for 3 hours.
(§5) Immunofluorescence staining. Cells were fixed in 4% paraformaldehyde in PBS for 15 minutes at room temperature (RT). For permeabilization and non-specific antibody blocking, 0.3% Triton-X containing 5% bovine serum albumin (BSA) (Sigma) in PBS was added for 60 minutes. Primary antibodies were made up in 5% BSA and then applied overnight at 4° C. Primary antibodies used were SMI-32 (BioLegend; 801701; mouse; 1:1000), ChAT (Millipore; AB144P; goat; 1:100), βIII-tubulin (abcam; ab41489; chicken; 1:1000), TDP-43 (ProteinTech; 12892-1-AP; rabbit; 1:400), SFPQ (abcam; ab11825; mouse; 1:400), FUS (Santa Cruz; sc-47711; mouse; 1:200), hnRNPA1 (Cell Signaling; 8443S; rabbit; 1:500), hnRNPK (Santa Cruz; sc-28380; mouse; 1:500). A species-specific Alexa Fluor-conjugated secondary antibody (Life Technologies) at 1:1000 dilution in 5% BSA was added for 90 minutes at RT in the dark. Cells were washed once in PBS containing DAPI, 4′,6-diamidino-2-phenylindole nuclear stain (1:1000) for 10 minutes.
(§6) Image acquisition and analysis. Images were acquired using the Opera Phenix High-Content Screening System (Perkin Elmer). Images were acquired with a 40× objective as confocal z-stacks with a z-step of 1 μm. Stacks were processed to obtain a maximum intensity projection. A minimum of 12 fields of view were taken for each well. To calculate the nuclear:cytoplasmic ratio of RNA-binding proteins (RBPs) in single cells, images were analysed using the Columbus Image Analysis System (Perkin Elmer). A DAPI mask defined the nucleus, and based on nuclear properties a trained machine learning feature selected neurons in an automated fashion. For each individual cell an average nuclear intensity of the RBP of interest was measured. For the cytoplasmic measurement, a 1.5 μm cytoplasmic region was defined around the nucleus within a cytoplasmic mask and an average intensity measured. […] A ratio of the nuclear:cytoplasmic average intensity measurements was calculated per cell. An average of each field was calculated and then averaged across the well.
(§7) For the nuclear:neurite ratio, we implemented a semi-automated image analysis pipeline combining Ilastik, Cellprofiler and ImageJ.

Experiment [4] deals with VCP mutant motor neurons. Description: RBP localisation by immunofluorescence in VCP mutant iPSC-derived motor neurons. Format: cell-based, human. As for the experimental part:
as §1, §2, §3, §4, §5, §6, §7

Experiment [5] concerns TARDBP-mutant (G298S) motor neurons. The settings on record: 1 μM CB-5083, 3 hours, vs untreated.
Description: Immunofluorescence staining. Cells were fixed in 4% paraformaldehyde in PBS for 15 minutes at room temperature (RT). For permeabilization and non-specific antibody blocking, 0.3% Triton-X containing 5% bovine serum albumin (BSA) (Sigma) in PBS was added for 60 minutes. Primary antibodies were made up in 5% BSA and then applied overnight at 4° C. […]
Image acquisition and analysis. […] To calculate the nuclear:cytoplasmic ratio of RNA-binding proteins (RBPs) in single cells, images were analysed using the Columbus Image Analysis System (Perkin Elmer). […] For each individual cell an average nuclear intensity of the RBP of interest was measured. For the cytoplasmic measurement, a 1.5 μm cytoplasmic region was defined around the nucleus within a cytoplasmic mask and an average intensity measured. […] A ratio of the nuclear:cytoplasmic average intensity measurements was calculated per cell. An average of each field was calculated and then averaged across the well.
Experiment [6] has as its system control and VCP mutant motor neurons. Description: Western blot of TDP-43, FUS and SFPQ protein levels. Format: cell-based, human. The settings on record: 1 μM ML240, 2 hours; whole cells. On the procedure: Western blot analysis. Protein levels of TDP-43, FUS and SFPQ were assessed in whole cells in control and VCP mutant motor neurons. Cells were subjected to untreated conditions or treatment of 1 μM of ML240 for 2 hours prior to protein extraction. The cells were lysed and proteins were extracted with RIPA disruption. Total protein concentration was quantified using BCA protein assay (Sigma). Equal amounts of protein samples were then loaded onto a gel and separated by SDS PAGE and transferred onto a nitrocellulose membrane. Samples were then blocked with PBS, 0.1% Tween, 5% dry milk powder at RT for one hour followed by primary antibody incubation overnight at 4° C. The following antibodies were diluted in PBS 5% BSA; TDP-43 (ProteinTech; 12892-1-AP; rabbit; 1:1000), SFPQ (Abcam; 11825; mouse; 1:250), FUS (Santa Cruz; sc-47711; mouse; 1:500), GAPDH (GeneTex; GT239; mouse; 1:10000). For detection, membranes were incubated with species-specific near infra-red fluorescent antibodies (IRDye, Licor) at RT for one hour and imaged using an Odyssey Fc Imaging System (Licor).

Where [7] appears, read: 1 μM ML240, 2 hours, normalised to control untreated.

“Also recorded” adds a separate entry of the source. Where two headings read alike, the source gives them in different places.

Consider 5 compounds from patent US20250281488A1, “VCP INHIBITORS AND USES THEREOF FOR TREATMENT” (The Francis Crick Institute Limited, priority 2021, published 2025).

VCP ATPase, sequence (P55072 whole entry): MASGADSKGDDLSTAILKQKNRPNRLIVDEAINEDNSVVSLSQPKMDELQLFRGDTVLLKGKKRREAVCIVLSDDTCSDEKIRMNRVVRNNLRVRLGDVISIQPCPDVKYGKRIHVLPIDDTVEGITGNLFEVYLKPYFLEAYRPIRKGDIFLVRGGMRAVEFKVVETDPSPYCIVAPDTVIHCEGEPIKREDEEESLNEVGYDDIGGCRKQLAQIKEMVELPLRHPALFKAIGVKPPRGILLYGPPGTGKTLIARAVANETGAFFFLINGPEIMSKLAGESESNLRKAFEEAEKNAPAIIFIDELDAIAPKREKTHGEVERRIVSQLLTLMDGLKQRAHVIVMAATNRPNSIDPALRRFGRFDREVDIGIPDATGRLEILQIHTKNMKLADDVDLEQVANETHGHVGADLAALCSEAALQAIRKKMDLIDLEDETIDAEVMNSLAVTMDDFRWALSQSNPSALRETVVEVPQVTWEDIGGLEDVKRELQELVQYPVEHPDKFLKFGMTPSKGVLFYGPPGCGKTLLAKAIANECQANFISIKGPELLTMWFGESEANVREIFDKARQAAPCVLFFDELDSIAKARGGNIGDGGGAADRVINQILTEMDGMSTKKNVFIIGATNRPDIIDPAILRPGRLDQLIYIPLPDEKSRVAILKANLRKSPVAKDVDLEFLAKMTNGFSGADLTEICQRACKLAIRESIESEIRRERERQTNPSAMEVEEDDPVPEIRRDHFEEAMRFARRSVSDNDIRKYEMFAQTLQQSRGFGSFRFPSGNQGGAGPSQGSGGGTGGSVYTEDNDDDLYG

With “3,4-methylenedioxy-6-nitrostyrene [Syk inhibitor III]”, in experiment [1], the EC50 (as a rule, the concentration giving half of the maximal effect) is 1.6 µM. The IC50 (in general, the concentration that inhibits the measured activity by half) in experiment [2] was 1.7 µM.

Take `Cc1cc2c(C(N)=O)cccc2n1-c1nc2c(c(NCc3ccccc3)n1)COCC2` [CB-5083, 1-[7,8-dihydro-4-[(phenylmethyl)amino]-5H-pyrano[4,3-d]pyrimidin-2-yl]-2-methyl-1H-indole-4-carboxamide]: the “TDP-43 nuclear:cytoplasmic ratio (N/C)” value was “increase” in experiment [3] (1 μM CB-5083, 3 hours); “able to reverse” in experiment [4] (1 μM CB-5083, 3 hours, vs untreated); “increase” in experiment [4] (1 μM CB-5083, 3 hours, vs untreated, listed as CB5083); “increased” in experiment [5]; “increase” in experiment [5] (listed as CB5083).

In the case of `c1ccc(CNc2nc(NCc3ccccc3)c3ccccc3n2)cc1` [DBeQ, N2,N4-dibenzylquinazo-line-2,4-diamine], the “TDP-43 nuclear:cytoplasmic ratio (N/C)” value in experiment [3] (5 μM DBeQ, 3 hours) was “increased”; in experiment [3] (5 μM DBeQ, 3 hours, listed as DBEQ), “increase”; in experiment [4] (5 μM DBeQ, 3 hours, vs untreated), “able to reverse”; in experiment [4] (5 μM DBeQ, 3 hours, vs untreated, listed as DBEQ) it was “increase”. For the same compound, in experiment [1], the EC50 is 2.6 µM. The IC50 in experiment [2] was 1.5 µM.

As for `COc1cccc2c(NCc3ccccc3)nc(-n3c(N)nc4ccccc43)nc12` [ML240, 2-(2-Amino-1H-benzimidazole-1-yl)-8-methoxy-N-(phenylmethyl)-4-quinazolinamine], in experiment [3] (1 μM ML240, 2 hours), the “FUS nuclear:cytoplasmic ratio” value is “no difference”, the “FUS nuclear:neurite ratio” value is listed as “small increase”, the “SFPQ nuclear:cytoplasmic ratio” value is on record as “no difference” and the “SFPQ nuclear:neurite ratio” value is given as “no difference”. In experiment [3] (1 μM ML240, 2 hours), the “TDP-43 nuclear:cytoplasmic ratio (N/C)” value was “increase”, the “TDP-43 nuclear:neurite ratio (Nu/Ne)” value is given as “no such increase was observed; also recorded: no difference”, the “hnRNPA1 nuclear:cytoplasmic ratio” value was “no difference” and the “hnRNPK nuclear:cytoplasmic ratio” value is “no difference”. In experiment [4] (1 μM ML240, 2 hours), the “hnRNPA1 nuclear:cytoplasmic ratio” value is reported as “no change” and the “hnRNPK nuclear:cytoplasmic ratio” value is “no change”. Besides, in experiment [4] (setting [7]), the “FUS nuclear:cytoplasmic ratio” value is “robustly reversed the mislocalization; also recorded: increase”, the “FUS nuclear:neurite ratio” value was “robustly reversed the mislocalization; also recorded: increase of the nuclear:neurite ratio to control values”, the “SFPQ nuclear:neurite ratio” value is recorded as “significantly reversed; also recorded: increase” and the “TDP-43 nuclear:cytoplasmic ratio (N/C)” value is on record as “robustly reversed the mislocalization; also recorded: increased above control values”. Moreover, in experiment [4] (setting [7]), the “TDP-43 nuclear:neurite ratio (Nu/Ne)” value is “robustly reversed the mislocalization; also recorded: increased”. Moreover, in experiment [6], the “FUS overall protein level (Western blot, normalised to GAPDH)” value was “did not change; also recorded: does not change”; the “SFPQ overall protein level (Western blot, normalised to GAPDH)” value was “did not change; also recorded: does not change”; the “TDP-43 overall protein level (Western blot, normalised to GAPDH)” value is on record as “did not change; also recorded: does not change”.

Consider `Cc1cc(OCc2nnc(SC3CCCC3)n2-c2cccnc2)ccc1-c1ccc(S(C)(=O)=O)cc1` [NMS-873], for which the EC50 in experiment [1] was 0.4 to 0.7 µM.
